The subject of one experiment is MC38 tumors. Description: MC38 flank tumor model, single intravenous dose. Particulars: for tumor burden: MC38, single iv dose day 7: LND 1 5 nmol CDN, parent CDN 5 or 100 nmol, ADU-S100 100 nmol. The format is in vivo, mouse. The procedure: Specifically, a single intravenous injection of LND 1 prepared as described in Example 3 was compared to intravenous injection of parent CDN for effects on tumor growth in a mouse model of colon adenocarcinoma. Tumors were established in 8-10 week old C57BL/6 mice by inoculating the right flank with a subcutaneous injection of 5x10^5 MC38 cells suspended in PBS. On day 7 post-inoculation, the mice were administered an intravenous injection of either parent CDN or LND-formulated CDN at a dose of 5 nmol CDN. Tumor area was measured on days 7, 10, and 12 and compared to untreated mice that received an intratumoral injection of PBS on day 7. The mice were then sacrificed on day 13, and excised tumors were weighed.
Mice were inoculated with MC38 tumors as described above. On day 7 post tumor inoculation, mice were administered a single intravenous injection of parent CDN at a dose of 5 nmol (n=5) or 100 nmol (n=10), ADU-S100 at a dose of 100 nmol (n=10), or LND 1 at a dose of 5 nmol CDN (n=20). Following administration, tumor growth and animal survival was monitored and compared to untreated mice that received an injection of PBS.
It was further investigated whether intravenous administration of LND-formulated CDN was effective in treating well-established MC38 tumors. Specifically, MC38 tumors were allowed to grow for 10 days post-inoculation (mean size of about 45 mm^2), whereupon a single intravenous dose of LND 1 was administered (5 nmol CDN). Control mice were administered PBS only. […] Though mice administered LND-formulated CDN experience some weight loss (about 10% body weight), they recovered full body weight within about 5 days of administration (data not shown).
Systemic administration of LND or liposome particles comprising CDN-PEG-Lipid was compared in the MC38 tumor model. […] The effect on tumor area and survival was evaluated and compared to untreated mice receiving an injection of PBS alone. Tumor size was measured by area (longest dimension x perpendicular dimension) and the mice were euthanized when the tumor area exceeded 150 mm^2 or tumor ulceration became severe.

The next experiment deals with 4T1-Luc tumor. The experiment is described as follows: Orthotopic 4T1 tumor model, single intravenous dose. The class given is in vivo, mouse. As to conditions: 4T1 orthotopic, single iv day 7: LND 1 10 nmol CDN; parent CDN 200 nmol. The procedure:
To evaluate therapeutic efficacy in the aggressive 4T-1 orthotopic tumors, BALB/c mice were inoculated with 5 x 10^5 4T1-Luc tumor cells that were injected into the fourth mammary fat-pad. At 7 days post tumor inoculation, mice were administered CDN formulated as LND 1 at a dose of 10 nmol CDN or parent CDN at a dose of 200 nmol CDN per mouse by intravenous injection. Control mice were administered PBS only.

As for `Nc1ncnc2c1ncn2[C@@H]1O[C@@H]2COP(O)(=S)O[C@@H]3C(O)[C@@H](COP(O)(=S)O[C@H]2[C@H]1O)O[C@H]3n1cnc2c(N)ncnc21` (stereo partly shown) [ADU-S100, dithio-(Rp, Rp)-[cyclic[A(2′,5′)pA(3′,5′)p]], reference compound], the tumor burden entry with MC38 tumors is “no reduction of tumor burden”.

On to `CCN(CC)CC.Nc1nc2c(ncn2[C@@H]2O[C@@H]3COP(=O)(S)O[C@H]4[C@H]5OC[C@]4(COP(=O)(O)O[C@@H]2[C@@H]3O)O[C@H]5n2cnc3c(N)ncnc32)c(=O)[nH]1` (stereo partly shown) [parent CDN], for which the “tumor area and mass” value in the experiment with MC38 tumors (MC38, single iv 5 nmol CDN on day 7, area days 7-12, weight day 13, vs untreated) is “no effect”. For the same compound, the tumor burden result in the experiment on MC38 tumors is reported as “no reduction of tumor burden”. Besides, the “tumor growth and survival” value with 4T1-Luc tumor was “no impact on tumor growth or overall survival”.

The record behind these values is patent publication US20230149560A1, “LIPID COMPOSITIONS FOR DELIVERY OF STING AGONIST COMPOUNDS AND USES THEREOF” (priority 2020, published 2023).
